# Data as given in US20210252120A1, “IMMUNOTHERAPY FOR CANCER” (SOTIO A.S., priority 2016, published 2021).
# Assays:
# CD8^+ T cells = test: Proliferation of CD8+ T cells (Ki67+ staining, flow cytometry) in tumor cell suspensions incubated with IL-15; format: cell-based, human
# Experimental: (§1) Tumoral (Tu) and non-tumoral tissue (NTu) were obtained from 82 NSCLC patients undergoing neoadjuvant surgery. The characteristics of NSCLC patients are depicted in Table 2. Tissue samples obtained at the day of surgery were chopped into small pieces and incubated with agitation in RMPI 1640 medium (Gibco) with 100 ng/ml DNAse I and 20 ng/ml Collagenase D (both from Roche) for 45 minutes at 37° C. The cell suspension was then passed through the 100 μm strainer into 50 ml falcon tubes to obtain single cell suspensions. The infiltrated immune cell populations were analyzed by flow cytometry immediately after staining with specific antibodies for 30 min at 4° C. as described below. For further stimulation lymphocytes were counted and seeded into 96-well plates at the concentration of 1×10^6 lymphocytes/nil in RPMI-1640 medium supplemented with 10% heat-inactivated fetal bovine serum (PAA), 2 mM GlutaMAX I CTS (Gibco) and 100 U/ml penicillin+[…] streptomycin (Gibco). Cells were stimulated with 50 ng/ml PMA and 10 ng/ml ionomycin (both from Sigma-Aldrich) for 1 h at 37° C. before Brefeldin A (BioLegend, 1000×) was added for 3 h to detect intracellular IFN-γ in CD8^+ and CD4^+ T cells. In some experiments recombinant IL-15 (Peprotech, 13 ng/ml) was added to the cell culture and the proliferating CD8^+ T cells and NK cells were detected by flow cytometry after 3 and 7 days of incubation at 37° C. Cell viability was detected by DAPI (Thermo Fisher Scientific) or by LIVE/DEAD® Fixable Aqua Dead Cell Stain Kit 405 nm excitation (Invitrogen).
# (§2) Cells were stained extracellularly with the mixture of appropriate antibody in PBS for 30 min at 4° C. For intracellular staining of IFN-γ, Foxp3, CD3 and Ki-67 the cells were fixed for 30 min using Fixation Buffer (eBioscience), permeabilized with Permeabilization Buffer (eBioscience) and stained intracellularly for 30 min at 4° C. Cells were washed with PBS and analyzed by LSRFortessa (BD Biosciences). Data were analyzed with FlowJo software (Tree Star). Flow cytometry data may be expressed as mean fluorescent intensity (MFI).
# (§3) As PMA and ionomycin represent strong unspecific stimulation of immune cells, IL-15 was used to activate predominantly NK cells and CD8^+ T cells, playing a major role in antitumor immunity. Tumor cell suspensions were incubated alone or with IL-15 for 7 days. The proliferation of CD8^+ T cells and NK cells was analyzed on Day 0, 3 and 7 by Ki67^+ staining followed by flow cytometry. Whereas 68% and 79% of T cells and NK cells, respectively, proliferated on Day 3 of incubation in AC tumors, only 23% and 8% of T cells and NK cells, respectively, proliferated in SCC tumors, confirming a higher immunosuppressive environment in SCC than AC tumors (see Table 6).
# NK cells (CD3^−CD56^+) = test: Proliferation of NK cells (Ki67+ staining, flow cytometry) in tumor cell suspensions incubated with IL-15; format: cell-based, human
# Experimental: as §1, §2, §3
# [1] = AC tumor cell suspension, Day 3, +IL-15
# [2] = AC tumor cell suspension, Day 7, +IL-15
# [3] = SCC tumor cell suspension, Day 3, +IL-15
# [4] = SCC tumor cell suspension, Day 7, +IL-15
substance,measurement,setting,value
"IL-15: recombinant IL-15 (Peprotech, 13 ng/ml) added to cell culture to activate predominantly NK cells and CD8+ T cells",Ki67^+ cells from CD8^+ T cells,CD8^+ T cells; [1],68%
same,Ki67^+ cells from CD8^+ T cells,CD8^+ T cells; [2],62%
same,Ki67^+ cells from CD8^+ T cells,CD8^+ T cells; [3],23%
same,Ki67^+ cells from CD8^+ T cells,CD8^+ T cells; [4],45%
same,Ki67^+ cells from CD3^−CD56^+ T cells (NK cells),NK cells (CD3^−CD56^+); [1],79%
same,Ki67^+ cells from CD3^−CD56^+ T cells (NK cells),NK cells (CD3^−CD56^+); [2],50%
same,Ki67^+ cells from CD3^−CD56^+ T cells (NK cells),NK cells (CD3^−CD56^+); [3],8%
same,Ki67^+ cells from CD3^−CD56^+ T cells (NK cells),NK cells (CD3^−CD56^+); [4],40%
